For assay [1], the target named is purified folded MHC-complex (Example 37).
The subject of a further assay is T2 cells. As to conditions: cited from earlier work.
The target in assay [2] is Bcl-X(L)173-182 specific CD8 T cells in PBL from a breast cancer patient. The assay is described as follows: flow cytometry of PBL ex vivo, APC dextramer with 7-AAD, CD3 and CD8; compared with an HIV specific dextramer as negative control. For orientation: In flow cytometry, cells or beads pass a laser one at a time.
Assay [3] has as its system PBL from a breast cancer patient. As to conditions: with vs without peptide; in doublets; cited from earlier work.

Read-outs that look alike come from different tables or passages of the source.

For the substance “W6/32 mouse-anti-HLA-ABC antibody (Dako M0736)”, the OD450 ratio to the negative control β2m in assay [1] is > 6 fold.

For “GLQHWVPEL (Irrelevant peptide) [BA4697-105, irrelevant peptide loaded on T2 target cells, reference compound]”, the “lysis of peptide-pulsed T2 cells” value in the assay on T2 cells (Clone 8, 9, 10, 11, and 12) is reported as “without killing”.

On to “dextramer complex HLA-A2/Bcl-X(L)173-182-APC (from UniProt P61769 21-119) (peptide-MHC)”, for which the level of dextramer positive CD-8 cells in the patient sample in assay [2] was determined as 0.03%.

Regarding YLNDHLEPWI (listed as Homo Sapiens), the “number of spots (IFN-gamma producing T-cells)” value in assay [3] is “clearly shows the presence of BclX(L) specific T-cells”. The “lysis of peptide-pulsed T2 cells” value was “did not show specific lysis” with T2 cells (Clone 7, 13, 15, 17, and 18); “effectively lysed” with T2 cells (Clone 8, 9, 10, 11, and 12). Further, the “cell lysis of T2 cells pulsed with different concentrations of peptide” value with T2 cells (clone 9, E:T ratio 1:1) is “significant even at low concentrations”. Further, the “cell lysis of peptide-pulsed T2 cells” value with T2 cells (clone 9, specific vs irrelevant peptide, three E:T ratios) was “necessary to get killing of the target cell”.

Values taken from patent US20110318380A1, “MHC Multimers in Cancer Vaccines and Immune Monitoring” (priority 2008, published 2011).
